A short description of data set [1]: Stress test at about 40° C./75% RH for 11 days. The data set is classed as physicochemical. How it is done: The physical stability of aEGCG and the four dispersions were evaluated at different conditions including a typical stress condition of 40° C./75% RH for 11 days, and in media of SGF and SIF for 24 h. Table 1 summarizes the visual observations on the materials after they have been stressed at 40° C./75% RH for 11 days. The aEGCG became a hard material after stress, while all the dispersions were particles or soft aggregates.
XRPD patterns were collected with a PANalytical X'Pert PRO MPD diffractometer using an incident beam of Cu radiation produced using an Optix long, fine-focus source. An elliptically graded multilayer mirror was used to focus Cu Kα X-rays through the specimen and onto the detector. Prior to the analysis, a silicon specimen (NIST SRM 640e) was analyzed to verify the observed position of the Si 111 peak is consistent with the NIST-certified position. A specimen of the sample was sandwiched between 3-μm-thick films and analyzed in transmission geometry. A beam-stop, short antiscatter extension, and antiscatter knife edge were used to minimize the background generated by air. Soller slits for the incident and diffracted beams were used to minimize broadening from axial divergence. Diffraction patterns were collected using a scanning position-sensitive detector (X'Celerator) located 240 mm from the specimen and Data Collector software v. 2.2b. […]

Data set [2] is described as follows: Dissolution test in pH 7.4 PBS at 37° C. As to conditions: for Release of EGCG in the first 20 minutes: 20 mg EGCG equivalent in 100 mL; for Visible solids during dissolution test: up to 24 hours. The data set is classed as physicochemical. How it is done:
As an initial proposition, the dispersions, aEGCG and cEGCG were modeled with respect to pseudo-second order models according to equation 1 where t is time, Q is cumulative release, and Qe the final release and, and k2 the rate constant of pseudo-second order kinetics.
Dissolution testing was performed in 100 mL of standard phosphate-buffered salines (pH 7.4) at 37° C. in a jacketed beaker. The temperature was precisely controlled by a Julabo Heating Circulator. EGCG concentration in the solution was in-situ monitored via an Ocean Optics USB2000+UV-VIS spectrometer equipped with an RT-2MM Dip Probe. The testing was performed with continuous stirring until all solids were dissolved and the medium was free of observable particles, or up to 24 hours. For early period of dissolution, the data acquisition density was relatively large to capture all sudden changes; while at later periods, the data acquisition frequency was reduced due to slow evolution in the medium. For each material, an equivalency of 20 mg EGCG was tested and the experiment was monitored until all solids were dissolved or up to 24 hours. Based on the dissolution data, all EGCG (˜20 mg) were released into the medium within the period of dissolution tests for all samples.

The nature of data set [3]: Stress tests in simulated GI tract media (SGF and SIF), observed under PLM. The data set is classed as physicochemical. How it is done:
For stress testing in media, solids of aEGCG and the dispersions were suspended in SGFs and SIFs (see Example 6), and the suspensions were observed under polarized light microscope from time to time to look for the evidence of birefringence and extinction (B/E) of the materials, which is the indication of the occurrence of crystallization in a material.
Polarized light microscopy (PLM) was performed using a Leica DM LP microscope with cross polarizer. SEM was performed using a FEI Quanta 200 scanning electron microscope equipped with an Everhart Thornley (ET) detector. Images were collected and analyzed using xTm (v. 2.01) and XT Docu (v. 3.2) software, respectively. The thermogravimetric analyses (TGA) were performed using a TA Instruments Q5000 IR thermogravimetric analyzer. Each sample was placed in an aluminum sample pan and inserted into the TGA furnace. The furnace was first equilibrated at 25° C., and then heated under N2 at a rate of 10° C./min, up to a final temperature of 350° C. Modulated differential scanning calorimetry (mDSC) data were obtained on a TA Instruments Q2920 differential scanning calorimeter equipped with a refrigerated cooling system (RCS). The test was progressed by modulating temperature±0.8° C. every 60 seconds from 0 to 180° C. The reported glass transition temperature (Tg) is obtained from the inflection point of the step change in the reversing heat flow versus temperature curve.
Solids were suspended in media including simulated gastric fluid (SGF) and simulated intestinal fluid (SIF), and observed under PLM from time to time up to 24 hours for evidence of crystallization indicative by the appearance of birefringence/extinctions. Because of the high solubility of aEGCG, more materials were suspended into the media compared with the dispersions.

A short description of data set [4]: Stability of dispersions of varying weight ratios, about 40° C./75% RH/30 days. In kind it is physicochemical. How it is done: For the four polymers identified, further stress tests were carried out on dispersions with varying weight ratios of EGCG to polymer as set forth in Example 8. In these experiments, stressing was done for 30 days at 75% relative humidity at 40° C. for 30 days. FIGS. 50-63 are the XRPD patterns of the prepared dispersions prior to stressing. FIGS. 75-78 are the XRPD patterns after stressing and these too show the samples to amorphous by XRPD. FIGS. 82, 83, and 85 show a peak indicative of NaCl, which is used in the salt both of the humidity chamber storing the samples. Thus, such a peak is not indicative of any crystalline EGCG in the corresponding dispersions. […] Based on the XRPD results, the post-stressing dispersions were x-ray amorphous (other than the NaCl peaks).
20 capsules of Teavigo™ were broken and the solids were suspended in ˜300 mL HPLC grade water and filtered to remove the solids. The resultant solution was clear with no evidence of solid particles observed. The solution was then dried under N2 purge until water is fully removed based on visual observation. Such generated EGCG solids were directly used for generating amorphous EGCG and solid dispersions.
EGCG solid dispersions were prepared by lyophilization using four polymers including HPMC-AS, HPMC-P, Soluplus®, and cellulose acetate. Individual solutions of polymer (in dioxane) and EGCG (in water) were prepared. The EGCG aqueous solution was added into the polymer-dioxane solution slowly. Additional fresh dioxane were added into the samples followed by vigorous vortexing to reach a clear solution without visible solids or colloids.
For lyophilization, each EGCG/polymer solution was frozen in a cold bath of dry ice/acetone (at a temperature of −78° C.). The sample vial was then kept in a lyophilizer at −30° C. for 1 day, −10° C. for 2 days, 0° C. for 1 day, and then 20° C. for 4 hours. Pure EGCG aqueous solution was lyophilized as well to generate amorphous EGCG (EGCG) as a reference material for comparison with the dispersions. The lyophilized materials are free flowing materials.

The conditions of data set [5]: values as low as; rodents and humans; cited from earlier work.
For data set [6] the following is noted: cited from earlier work.

SMILES strings stand for the structures.

In the case of `O=C(O[C@@H]1Cc2c(O)cc(O)cc2O[C@@H]1c1cc(O)c(O)c(O)c1)c1cc(O)c(O)c(O)c1` [aEGCG, epigallocatechin gallate], in data set [1], the “Visual observation after stress” value is listed as “pink hard material, agg” and the “XRPD of post-stress samples” value is given as “highly crystalline material”. For the same molecule, in data set [2], the “Release profile (in words)” value is listed as “immediate dissolution”, the “Release of EGCG in the first 20 minutes” value is approximately 100% and the “Visible solids during dissolution test” value is reported as “dissolved without visible solids”. In data set [3] (suspended in SGF, PLM), the “Time to crystallization in SGF” value is not above 15 min. In data set [3] (suspended in SIF, PLM), the “Time to crystallization in SIF” value is not above 15 min. Moreover, the “XRPD of post-stressing solids” value in data set [4] (40° C./75% RH, 30 days) is “converted to crystalline EGCG”. The Color after stress entry in data set [4] (40° C./75% RH, 30 days, visual observation) is “pink”. Moreover, in data set [4] (before stress, visual observation), the Color as generated entry is recorded as “very light pink,”.

Regarding `O=C(O[C@@H]1Cc2c(O)cc(O)cc2O[C@@H]1c1cc(O)c(O)c(O)c1)c1cc(O)c(O)c(O)c1` [cEGCG, epigallocatechin gallate], in data set [2], the “Release of EGCG in the first 20 minutes” value is “approximately 93%” and the “Visible solids during dissolution test” value is “dissolved without visible solids”.

For `O=C(O[C@@H]1Cc2c(O)cc(O)cc2O[C@@H]1c1cc(O)c(O)c(O)c1)c1cc(O)c(O)c(O)c1` [EGCG, epigallocatechin gallate], in data set [5], the Bioavailability is listed as 2-5%. For the same molecule, the “Observations under PLM in SGF” value in data set [3] (simulated gastric fluid, up to 24 h, B/E = birefringence/extinction, indicates crystallization) is reported as “B/E observed in 15 min”. The “Observations under PLM in SIF” value in data set [3] (simulated intestinal fluid, up to 24 h, B/E = birefringence/extinction, indicates crystallization) was “B/E observed in 15 min”. Besides, in data set [6] (Manach et al. 2005), the “Share present in plasma in free form” value is 77-90%. Moreover, in data set [6] (coadministration of piperine, Lambert et al. 2004), the Improvement in bioavailability is given as 30%.

(Values after patent US20200323815A1, “AMORPHOUS DISPERSIONS OF EPIGALLOCATECHIN GALLATE” (AMRI SSCI, LLC, priority 2017, published 2020).)
